Legend:
Assay in all cases: relative viability (nuclei count vs DMSO), 5 days (fraction); higher = more cells survive
IA-LM = tested on: IA-LM
Procedure, shortened: (§1)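 Relative viability is defined as nuclei in treated wells over nuclei in vehicle wells. Duplicate plates were run and medians reported. Lung cancer cell lines in 1536-well plates were dosed by pin tool one day after seeding, with one drug or with a fixed anchor-drug dose plus five library-drug doses (not always all listed) in √10 steps, and nuclei were counted after 5 days.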

A549 = tested on: A549
Procedure, shortened: as §1

EKVX = tested on: EKVX
Procedure, shortened: as §1

HCC-44 = tested on: HCC-44
Procedure, shortened: as §1

ABC-1 = tested on: ABC-1
Procedure, shortened: as §1

NCI-H1703 = tested on: NCI-H1703
Procedure, shortened: as §1

NCI-H2085 = tested on: NCI-H2085
Procedure, shortened: as §1

NCI-H1993 = tested on: NCI-H1993
Procedure, shortened: as §1

NCI-H2126 = tested on: NCI-H2126
Procedure, shortened: as §1

Calu-6 = tested on: Calu-6
Procedure, shortened: as §1

RERF-LC-KJ = tested on: RERF-LC-KJ
Procedure, shortened: as §1

NCI-H1299 = tested on: NCI-H1299
Procedure, shortened: as §1

EBC-1 = tested on: EBC-1
Procedure, shortened: as §1

With `CCN(CC)CCCCNc1ncc2cc(-c3cc(OC)cc(OC)c3)c(NC(=O)NC(C)(C)C)nc2n1` + CS(=O)(=O)N1CCN(Cc2cc3nc(-c4cccc5[nH]ncc45)nc(N4CCOCC4)c3s2)CC1 [Pictilisib] (partner 1 µM) the relative viability (IA-LM; first compound 0.01 µM) was 0.329, the relative viability (IA-LM; first compound 0.03162 µM) was 0.329 and the relative viability (IA-LM; first compound 0.1 µM) was 0.342. The relative viability (IA-LM; first compound 0.3162 µM) was 0.333, the relative viability (IA-LM; first compound 1 µM) was 0.265 and the relative viability (A549; first compound 0.01 µM) was 0.52. It also gave a relative viability (A549; first compound 0.03162 µM) of 0.543, a relative viability (A549; first compound 0.1 µM) of 0.562 and a relative viability (A549; first compound 0.3162 µM) of 0.621. It also gave a relative viability (A549; first compound 1 µM) of 0.41, a relative viability (EKVX; first compound 0.01 µM) of 0.437 and a relative viability (EKVX; first compound 0.03162 µM) of 0.455. The relative viability (EKVX; first compound 0.1 µM) was 0.42, the relative viability (EKVX; first compound 0.3162 µM) was 0.407 and the relative viability (EKVX; first compound 1 µM) was 0.465. For the same molecule, the relative viability (HCC-44; first compound 0.01 µM) was 0.687, the relative viability (HCC-44; first compound 0.03162 µM) was 0.746 and the relative viability (HCC-44; first compound 0.1 µM) was 0.603. The relative viability (HCC-44; first compound 0.3162 µM) was 0.635, the relative viability (HCC-44; first compound 1 µM) was 0.451 and the relative viability (ABC-1; first compound 0.01 µM) was 0.686. It also gave a relative viability (ABC-1; first compound 0.03162 µM) of 0.66, a relative viability (ABC-1; first compound 0.1 µM) of 0.736 and a relative viability (ABC-1; first compound 0.3162 µM) of 0.818. The relative viability (ABC-1; first compound 1 µM) was 0.671, the relative viability (NCI-H1703; first compound 0.01 µM) was 0.233 and the relative viability (NCI-H1703; first compound 0.03162 µM) was 0.222. For the same molecule, the relative viability (NCI-H1703; first compound 0.1 µM) was 0.244, the relative viability (NCI-H1703; first compound 0.3162 µM) was 0.213 and the relative viability (NCI-H1703; first compound 1 µM) was 0.252. For the same molecule, the relative viability (NCI-H2085; first compound 0.01 µM) was 0.432, the relative viability (NCI-H2085; first compound 0.03162 µM) was 0.46 and the relative viability (NCI-H2085; first compound 0.1 µM) was 0.233. For the same molecule, the relative viability (NCI-H2085; first compound 0.3162 µM) was 0.512, the relative viability (NCI-H2085; first compound 1 µM) was 0.46 and the relative viability (NCI-H1993; first compound 0.01 µM) was 0.759. The relative viability (NCI-H1993; first compound 0.03162 µM) was 0.947, the relative viability (NCI-H1993; first compound 0.1 µM) was 0.861 and the relative viability (NCI-H1993; first compound 0.3162 µM) was 0.86. For the same molecule, the relative viability (NCI-H1993; first compound 1 µM) was 0.91, the relative viability (NCI-H2126; first compound 0.01 µM) was 0.498 and the relative viability (NCI-H2126; first compound 0.03162 µM) was 0.489. It also gave a relative viability (NCI-H2126; first compound 0.1 µM) of 0.508, a relative viability (NCI-H2126; first compound 0.3162 µM) of 0.523 and a relative viability (NCI-H2126; first compound 1 µM) of 0.477. It also gave a relative viability (Calu-6; first compound 0.01 µM) of 1.01, a relative viability (Calu-6; first compound 0.03162 µM) of 0.994 and a relative viability (Calu-6; first compound 0.1 µM) of 1.12. For the same molecule, the relative viability (Calu-6; first compound 0.3162 µM) was 1.09, the relative viability (Calu-6; first compound 1 µM) was 0.87 and the relative viability (RERF-LC-KJ; first compound 0.01 µM) was 0.695. For the same molecule, the relative viability (RERF-LC-KJ; first compound 0.03162 µM) was 0.639, the relative viability (RERF-LC-KJ; first compound 0.1 µM) was 0.528 and the relative viability (RERF-LC-KJ; first compound 0.3162 µM) was 0.671. It also gave a relative viability (RERF-LC-KJ; first compound 1 µM) of 0.526, a relative viability (NCI-H1299; first compound 0.01 µM) of 0.883 and a relative viability (NCI-H1299; first compound 0.03162 µM) of 0.845. It also gave a relative viability (NCI-H1299; first compound 0.1 µM) of 0.851, a relative viability (NCI-H1299; first compound 0.3162 µM) of 0.96 and a relative viability (NCI-H1299; first compound 1 µM) of 0.775. The relative viability (EBC-1; first compound 0.01 µM) was 0.369, the relative viability (EBC-1; first compound 0.03162 µM) was 0.32 and the relative viability (EBC-1; first compound 0.1 µM) was 0.342. The relative viability (EBC-1; first compound 0.3162 µM) was 0.37 and the relative viability (EBC-1; first compound 1 µM) was 0.293.
For `O=c1cc(-c2cccc3c2Sc2ccccc2S3)oc(N2CCOCC2)c1` + CS(=O)(=O)N1CCN(Cc2cc3nc(-c4cccc5[nH]ncc45)nc(N4CCOCC4)c3s2)CC1 [Pictilisib] (partner 1 µM), the relative viability (IA-LM; first compound 0.08 µM) was 0.278, the relative viability (IA-LM; first compound 0.8 µM) was 0.328 and the relative viability (IA-LM; first compound 2.53 µM) was 0.346. The relative viability (IA-LM; first compound 8 µM) was 0.315, the relative viability (A549; first compound 0.08 µM) was 0.542 and the relative viability (A549; first compound 0.253 µM) was 0.852. For the same molecule, the relative viability (A549; first compound 0.8 µM) was 0.681, the relative viability (A549; first compound 2.53 µM) was 0.481 and the relative viability (A549; first compound 8 µM) was 0.651. The relative viability (EKVX; first compound 0.08 µM) was 0.418, the relative viability (EKVX; first compound 0.253 µM) was 0.521 and the relative viability (EKVX; first compound 0.8 µM) was 0.286. For the same molecule, the relative viability (EKVX; first compound 2.53 µM) was 0.439, the relative viability (EKVX; first compound 8 µM) was 0.47 and the relative viability (HCC-44; first compound 0.08 µM) was 0.457. The relative viability (HCC-44; first compound 0.253 µM) was 0.655, the relative viability (HCC-44; first compound 0.8 µM) was 0.536 and the relative viability (HCC-44; first compound 2.53 µM) was 0.468. The relative viability (HCC-44; first compound 8 µM) was 0.577, the relative viability (ABC-1; first compound 0.08 µM) was 0.62 and the relative viability (ABC-1; first compound 0.253 µM) was 0.739. The relative viability (ABC-1; first compound 0.8 µM) was 0.607, the relative viability (ABC-1; first compound 2.53 µM) was 0.666 and the relative viability (ABC-1; first compound 8 µM) was 0.71. It also gave a relative viability (NCI-H1703; first compound 0.253 µM) of 0.25, a relative viability (NCI-H1703; first compound 0.8 µM) of 0.279 and a relative viability (NCI-H1703; first compound 2.53 µM) of 0.241. The relative viability (NCI-H1703; first compound 8 µM) was 0.316, the relative viability (NCI-H2085; first compound 0.08 µM) was 0.44 and the relative viability (NCI-H2085; first compound 0.253 µM) was 0.586. For the same molecule, the relative viability (NCI-H2085; first compound 0.8 µM) was 0.476, the relative viability (NCI-H2085; first compound 2.53 µM) was 0.464 and the relative viability (NCI-H2085; first compound 8 µM) was 0.494. For the same molecule, the relative viability (NCI-H1993; first compound 0.08 µM) was 0.942, the relative viability (NCI-H1993; first compound 0.253 µM) was 0.759 and the relative viability (NCI-H1993; first compound 0.8 µM) was 0.894. The relative viability (NCI-H1993; first compound 2.53 µM) was 0.846, the relative viability (NCI-H1993; first compound 8 µM) was 0.805 and the relative viability (NCI-H2126; first compound 0.08 µM) was 0.454. The relative viability (NCI-H2126; first compound 0.253 µM) was 0.509, the relative viability (NCI-H2126; first compound 0.8 µM) was 0.412 and the relative viability (NCI-H2126; first compound 2.53 µM) was 0.452. The relative viability (NCI-H2126; first compound 8 µM) was 0.56, the relative viability (Calu-6; first compound 0.08 µM) was 0.86 and the relative viability (Calu-6; first compound 0.253 µM) was 0.882. For the same molecule, the relative viability (Calu-6; first compound 0.8 µM) was 0.96, the relative viability (Calu-6; first compound 2.53 µM) was 0.959 and the relative viability (Calu-6; first compound 8 µM) was 0.871. It also gave a relative viability (RERF-LC-KJ; first compound 0.08 µM) of 0.43, a relative viability (RERF-LC-KJ; first compound 0.253 µM) of 0.608 and a relative viability (RERF-LC-KJ; first compound 0.8 µM) of 0.622. For the same molecule, the relative viability (RERF-LC-KJ; first compound 2.53 µM) was 0.571, the relative viability (RERF-LC-KJ; first compound 8 µM) was 0.521 and the relative viability (NCI-H1299; first compound 0.08 µM) was 0.679. For the same molecule, the relative viability (NCI-H1299; first compound 0.253 µM) was 0.827, the relative viability (NCI-H1299; first compound 0.8 µM) was 0.856 and the relative viability (NCI-H1299; first compound 2.53 µM) was 0.763. The relative viability (NCI-H1299; first compound 8 µM) was 0.854, the relative viability (EBC-1; first compound 0.08 µM) was 0.352 and the relative viability (EBC-1; first compound 0.253 µM) was 0.469. For the same molecule, the relative viability (EBC-1; first compound 0.8 µM) was 0.342, the relative viability (EBC-1; first compound 2.53 µM) was 0.401 and the relative viability (EBC-1; first compound 8 µM) was 0.298.

— the supplement of paper PMC10307832
